Reference: article PMC4133868 (BMB Reports, 2013)

Columns and labels:
f-bCblC [1] = target: T1, f-bCblC (Bos taurus, UniProt Q5E9C8); assay: biochemical
T1 sequence (Q5E9C8 1-280): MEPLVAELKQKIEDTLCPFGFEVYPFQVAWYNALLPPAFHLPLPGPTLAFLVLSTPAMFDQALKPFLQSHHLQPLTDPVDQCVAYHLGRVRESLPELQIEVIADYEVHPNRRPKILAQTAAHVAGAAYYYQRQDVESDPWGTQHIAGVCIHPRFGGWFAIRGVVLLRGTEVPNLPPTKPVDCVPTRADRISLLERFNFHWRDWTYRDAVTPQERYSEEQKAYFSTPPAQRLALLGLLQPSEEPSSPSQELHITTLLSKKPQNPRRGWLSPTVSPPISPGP

f-bCblC [2] = target: T1, f-bCblC; conditions: read-out: Kd of GSH for f-bCblC (ITC); cited from earlier work
t-bCblC [3] = target: T2, t-bCblC (Bos taurus, UniProt Q5E9C8)
T2 sequence (Q5E9C8 1-244): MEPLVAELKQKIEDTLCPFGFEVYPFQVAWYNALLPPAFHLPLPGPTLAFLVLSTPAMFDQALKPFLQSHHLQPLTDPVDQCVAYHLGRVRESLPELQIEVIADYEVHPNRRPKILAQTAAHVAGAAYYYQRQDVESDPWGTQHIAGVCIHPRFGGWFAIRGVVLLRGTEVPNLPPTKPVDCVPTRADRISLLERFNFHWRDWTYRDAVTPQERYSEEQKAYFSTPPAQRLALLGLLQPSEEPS

t-bCblC [4] = target: T2, t-bCblC; assay: biochemical
f-bCblC [5] = target: T1, f-bCblC
t-bCblC [6] = target: T2, t-bCblC; assay: Isothermal titration calorimetry; type: binding, bovine
[7] = hyperbolic fit of ΔTm vs GSH concentration

AC50 (f-bCblC [1]): 3100 ± 300 µM
melting temperature Tm of t-bCblC in the presence of GSH (t-bCblC [3]; 10 mM GSH, Tm without GSH 41.5 ± 0.3℃): 45.2 ± 0.3 °C
maximal ΔTm (ΔTm max) of t-bCblC (t-bCblC [3]; [7]): 5.2 ± 0.2 °C
AC50 (t-bCblC [4]): 2800 ± 300 µM
melting temperature Tm of f-bCblC in the presence of GSH (f-bCblC [5]; 10 mM GSH, Tm without GSH 42.1 ± 0.4℃): 44.2 ± 0.3 °C
maximal ΔTm (ΔTm max) of f-bCblC (f-bCblC [5]; [7]): 2.8 ± 0.3 °C
Kd (t-bCblC [6]): 206 ± 35 µM
Structure (SMILES): N[C@@H](CCC(=O)N[C@@H](CS)C(=O)NCC(=O)O)C(=O)O [GSH, glutathione]
Kd (f-bCblC [2]): 355 ± 40 µM
